Patent US9060519B2, “Insecticidally active pyridyl-thiazole and pyridyl-thiadiazole derivatives” (Syngenta Participations AG, priority 2011, dated 2015)

System: not given
Test: not given
Conditions: not given

| melting point [°C] | SMILES |
| --- | --- |
| 169 to 171 | COc1ccc(Cl)c(-c2ccc(O/N=C(\C)c3sc(-c4cccnc4)nc3C)nn2)c1 [Compound 1.003] |
| 109 to 111 | COc1cc(OC)nc(O/N=C(/c2sc(-c3cccnc3)nc2Cl)C(F)(F)F)n1 [Compound 1.043] |
| 179 to 181 | C/C(=N\Oc1ccc(C)nn1)c1sc(-c2cccnc2)nc1C [Compound 1.004] |
| 165 to 166 | C/C(=N\Oc1ncc(C(F)(F)F)cn1)c1sc(-c2cccnc2)nc1C [Compound 1.015] |
| 167 to 169 | COc1ccc(O/N=C(\C)c2sc(-c3cccnc3)nc2C)nn1 [Compound 1.005] |
| 127 to 130 | Clc1nc(-c2cccnc2)sc1/C(=N/Oc1ncccn1)C1CC1 [Compound 1.044] |
| 149 to 151 | CSc1cc(F)cnc1O/N=C(\C)c1sc(-c2cccnc2)nc1C [Compound 1.055] |
| 53 to 55 | Cc1cc(C)nc(O/N=C(/c2sc(-c3cccnc3)nc2Cl)C2CC2)n1 [Compound 1.045] |
| 200 to 202 | C/C(=N\Oc1ccc2nnc(C)n2n1)c1sc(-c2cccnc2)nc1C [Compound 1.001] |
| 126 to 128 | C/C(=N\Oc1ncccc1Cl)c1sc(-c2cccnc2)nc1C [Compound 1.007] |
| 152 to 154 | C#CCOc1ccc(O/N=C(\C)c2sc(-c3cccnc3)nc2C)nn1 [Compound 1.002] |
| 174 to 176 | C/C(=N\Oc1ncc([N+](=O)[O-])cn1)c1sc(-c2cccnc2)nc1C [Compound 1.018] |

System: Plutella xylostella (diamond back moth)
Test: Plutella xylostella (larvicide, feeding/residual contact activity, preventive)
Type: in vivo
Conditions: 200 ppm; artificial diet in MTP, L2 larvae; larval mortality, antifeedant, growth regulation after 5 days
Experimental: Plutella xylostella (Diamond Back Moth) (Larvicide, Feeding/Residual Contact Activity, Preventive) 24-well microtiter plate (MTP) with artificial diet was treated with test solutions by pipetting. After drying, the MTP's were infested with larvae (L2)(10-15 per well). After an incubation period of 5 days, samples were checked for larval mortality, antifeedant and growth regulation.

| SMILES | activity |
| --- | --- |
| C/C(=N\Oc1ccc(C#N)cn1)c1sc(-c2cccnc2)nc1C [Compound 1.012] | over 80% |

System: Myzus persicae (green peach aphid)
Test: Activity against Myzus persicae (mixed population, feeding/residual contact activity, preventive)
Type: in vivo
Conditions: foliar, 144 h, sunflower leaf discs sprayed, aphids of mixed ages, mortality after 6 days
Experimental: Activity against Myzus persicae (Green Peach Aphid)
(Mixed Population, Feeding/Residual Contact Activity, Preventive)
Sunflower leaf discs were placed on agar in a 24-well microtiter plate and sprayed with test solutions. After drying, the leaf discs were infested with an aphid population of mixed ages. After an incubation period of 6 days, samples were checked for mortality.

| SMILES | pest or weed control at 200 ppm [%] |
| --- | --- |
| C/C(=N\Oc1nc(C)cc(C)n1)c1sc(-c2cccnc2)nc1C [Compound 1.010] | > 80 |
| CC/C(=N\Oc1nc(OC)cc(OC)n1)c1sc(-c2cccnc2)nc1Cl [Compound 1.049] | > 80 |
| C/C(=N\Oc1nccc(C)n1)c1sc(-c2cccnc2)nc1C [Compound 1.029] | > 80 |
| C/C(=N\Oc1ncccn1)c1cnc(-c2cccnc2)s1 [Compound 1.041, 1-[2-(3-pyridyl)thiazol-5-yl]-N-pyrimidin-2-yloxy-ethanimine] | > 80 |
| CC/C(=N\Oc1ncccn1)c1sc(-c2cccnc2)nc1Cl [Compound 1.048] | > 80 |
| COc1nc(OC)nc(O/N=C(\C)c2sc(-c3cccnc3)nc2C)n1 [Compound 1.060] | > 80 |
| COc1cc(OC)nc(O/N=C(\C)c2sc(-c3cccnc3)nc2Cl)n1 [Compound 1.058, 1-[4-chloro-2-(3-pyridyl)thiazol-5-yl]-N-(4,6-dimethoxypyrimidin-2-yl)oxy-ethanimine] | > 80 |
| CC/C(=N\Oc1nc(C)cc(C)n1)c1sc(-c2cccnc2)nc1Cl [Compound 1.047] | > 80 |
| C/C(=N\Oc1ncccn1)c1sc(-c2cccnc2)nc1Cl [Compound 1.050] | > 80 |
| C/C(=N\Oc1ncccc1SC(C)C)c1sc(-c2cccnc2)nc1C [Compound 1.056] | > 80 |
| COc1cc(OC)nc(O/N=C(\C)c2sc(-c3cccnc3)nc2C)n1 [Compound 1.009] | > 80 |
| COc1cnc(O/N=C(\C)c2sc(-c3cccnc3)nc2C)nc1 [Compound 1.014] | > 80 |
| C/C(=N\Oc1ncccn1)c1sc(-c2cccnc2)nc1C [Compound 1.013] | > 80 |
| C/C(=N\Oc1cc(Cl)cnc1Cl)c1sc(-c2cccnc2)nc1C [Compound 1.008] | > 80 |
| C/C(=N\Oc1nc(C)cc(C)n1)c1sc(-c2cccnc2)nc1Cl [Compound 1.057] | > 80 |
| COCc1cc(C)nc(O/N=C(\C)c2sc(-c3cccnc3)nc2C)n1 [Compound 1.032] | > 80 |
